Experimental data as given in PubChem BioAssay AID2060499 (Molecular Pharmacology Branch, DTP, NCI, 2025).

Tested on: 777334-354-R2-J4-PDC tumor spheroids with HUVEC/MSC, viability
Experiment: Anticancer human tumor 777334-354-R2-J4-PDC patient-derived pancreatic adenocarcinoma cell line growth inhibition [GQUAD]
Conditions: for IC50: curve of first compound; for viability, T/C: stronger effect = lower value
Summary of the method: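 Viability of tumor cells grown as complex spheroids with endothelial and stromal cells, exposed to drug combinations. Top concentration at or near clinical Cmax (else 10 microM), diluted in half-log increments.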

[1] = second compound 0.0316 µM, first compound 0.0316 µM
[2] = second compound 0.0316 µM, first compound 0.316 µM
[3] = second compound 0.1 µM, first compound 0.0316 µM
[4] = second compound 0.1 µM, first compound 0.316 µM
[5] = second compound 0.316 µM, first compound 0.0316 µM
[6] = second compound 0.316 µM, first compound 0.316 µM
[7] = second compound 1 µM, first compound 0.0316 µM
[8] = second compound 1 µM, first compound 0.316 µM
[9] = second compound 3.16 µM, first compound 0.0316 µM
[10] = second compound 3.16 µM, first compound 0.316 µM
[11] = second compound 10 µM, first compound 0.0316 µM
[12] = second compound 10 µM, first compound 0.316 µM
[13] = second compound 0.0316 µM, first compound 0.000999 µM
[14] = second compound 0.0316 µM, first compound 0.00316 µM
[15] = second compound 0.0316 µM, first compound 0.00999 µM
[16] = second compound 0.0316 µM, first compound 0.0999 µM
[17] = second compound 0.1 µM, first compound 0.000999 µM
[18] = second compound 0.1 µM, first compound 0.00316 µM
[19] = second compound 0.1 µM, first compound 0.00999 µM
[20] = second compound 0.1 µM, first compound 0.0999 µM
[21] = second compound 0.316 µM, first compound 0.000999 µM
[22] = second compound 0.316 µM, first compound 0.00316 µM
[23] = second compound 0.316 µM, first compound 0.00999 µM
[24] = second compound 0.316 µM, first compound 0.0999 µM
[25] = second compound 1 µM, first compound 0.000999 µM
[26] = second compound 1 µM, first compound 0.00316 µM
[27] = second compound 1 µM, first compound 0.00999 µM
[28] = second compound 1 µM, first compound 0.0999 µM
[29] = second compound 3.16 µM, first compound 0.000999 µM
[30] = second compound 3.16 µM, first compound 0.00316 µM
[31] = second compound 3.16 µM, first compound 0.00999 µM
[32] = second compound 3.16 µM, first compound 0.0999 µM
[33] = second compound 10 µM, first compound 0.000999 µM
[34] = second compound 10 µM, first compound 0.00316 µM
[35] = second compound 10 µM, first compound 0.00999 µM
[36] = second compound 10 µM, first compound 0.0999 µM
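Also: spheroids exposed to compounds for 7 days before readout.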

COc1ccc([C@@H](O)c2cc(-c3ncnc4cc(N5CCOCC5)ccc34)c(F)cc2Cl)nn1 + Cc1[nH]c2ccc(F)cc2c1-c1nc2c3cccnc3c3ncccc3c2[nH]1
IC50 (second compound 0.0316 µM): 3890 nM | IC50 (second compound 0.1 µM): 3880 nM | IC50 (second compound 0.316 µM): 3440 nM | IC50 (second compound 1 µM): 1890 nM | IC50 (second compound 3.16 µM): < 31.6 nM | IC50 (second compound 10 µM): < 31.6 nM | viability, T/C [1]: 102% | viability, T/C (second compound 0.0316 µM, first compound 0.1 µM): 91% | viability, T/C [2]: 95% | viability, T/C (second compound 0.0316 µM, first compound 1 µM): 76% | viability, T/C (second compound 0.0316 µM, first compound 3.16 µM): 54.5% | viability, T/C (second compound 0.0316 µM, first compound 10 µM): 30.3% | viability, T/C [3]: 110% | viability, T/C (second compound 0.1 µM, first compound 0.1 µM): 98.8% | viability, T/C [4]: 93% | viability, T/C (second compound 0.1 µM, first compound 1 µM): 71% | viability, T/C (second compound 0.1 µM, first compound 3.16 µM): 55.4% | viability, T/C (second compound 0.1 µM, first compound 10 µM): 30.5% | viability, T/C [5]: 92.8% | viability, T/C (second compound 0.316 µM, first compound 0.1 µM): 92.9% | viability, T/C [6]: 88.2% | viability, T/C (second compound 0.316 µM, first compound 1 µM): 80.3% | viability, T/C (second compound 0.316 µM, first compound 3.16 µM): 51.4% | viability, T/C (second compound 0.316 µM, first compound 10 µM): 28.9% | viability, T/C [7]: 79.9% | viability, T/C (second compound 1 µM, first compound 0.1 µM): 89.9% | viability, T/C [8]: 76.8% | viability, T/C (second compound 1 µM, first compound 1 µM): 61.8% | viability, T/C (second compound 1 µM, first compound 3.16 µM): 40.6% | viability, T/C (second compound 1 µM, first compound 10 µM): 22.2% | viability, T/C [9]: 46.1% | viability, T/C (second compound 3.16 µM, first compound 0.1 µM): 43.4% | viability, T/C [10]: 36.7% | viability, T/C (second compound 3.16 µM, first compound 1 µM): 17.7% | viability, T/C (second compound 3.16 µM, first compound 3.16 µM): 13.6% | viability, T/C (second compound 3.16 µM, first compound 10 µM): 9.99% | viability, T/C [11]: 35.4% | viability, T/C (second compound 10 µM, first compound 0.1 µM): 29.1% | viability, T/C [12]: 27.8% | viability, T/C (second compound 10 µM, first compound 1 µM): 15.2% | viability, T/C (second compound 10 µM, first compound 3.16 µM): 13% | viability, T/C (second compound 10 µM, first compound 10 µM): 12.6%

CC[C@@]1(O)C(=O)OCc2c1cc1n(c2=O)Cc2cc3c(CN(C)C)c(O)ccc3nc2-1 + CN(C)c1ccc(Nc2c3ccc(NC(=O)CCN4CCCC4)cc3nc3cc(NC(=O)CCN4CCCC4)ccc23)cc1
IC50 (second compound 0.0316 µM): 130 nM | IC50 (second compound 0.1 µM): 157 nM | IC50 (second compound 0.316 µM): 153 nM | IC50 (second compound 1 µM): 163 nM | IC50 (second compound 3.16 µM): 106 nM | IC50 (second compound 10 µM): 140 nM | viability, T/C [13]: 105% | viability, T/C [14]: 110% | viability, T/C [15]: 109% | viability, T/C [1]: 84.5% | viability, T/C [16]: 56% | viability, T/C [2]: 34.7% | viability, T/C [17]: 106% | viability, T/C [18]: 89.2% | viability, T/C [19]: 103% | viability, T/C [3]: 88.8% | viability, T/C [20]: 57.7% | viability, T/C [4]: 38.5% | viability, T/C [21]: 77.1% | viability, T/C [22]: 90.2% | viability, T/C [23]: 95.1% | viability, T/C [5]: 79.1% | viability, T/C [24]: 60.4% | viability, T/C [6]: 33.2% | viability, T/C [25]: 98.8% | viability, T/C [26]: 95.9% | viability, T/C [27]: 100% | viability, T/C [7]: 88.1% | viability, T/C [28]: 57.8% | viability, T/C [8]: 39.6% | viability, T/C [29]: 83.7% | viability, T/C [30]: 94.2% | viability, T/C [31]: 98.8% | viability, T/C [9]: 83.6% | viability, T/C [32]: 51.4% | viability, T/C [10]: 31.9% | viability, T/C [33]: 79.3% | viability, T/C [34]: 89.9% | viability, T/C [35]: 67.4% | viability, T/C [11]: 73.4% | viability, T/C [36]: 55.3% | viability, T/C [12]: 35.1%

CCc1c2c(nc3ccc(O)cc13)-c1cc3c(c(=O)n1C2)COC(=O)[C@]3(O)CC + CN(C)c1ccc(Nc2c3ccc(NC(=O)CCN4CCCC4)cc3nc3cc(NC(=O)CCN4CCCC4)ccc23)cc1
IC50 (second compound 0.0316 µM): 5.23 nM | IC50 (second compound 0.1 µM): 4.26 nM | IC50 (second compound 0.316 µM): 5.24 nM | IC50 (second compound 1 µM): 4.96 nM | IC50 (second compound 3.16 µM): 3.16 nM | IC50 (second compound 10 µM): 4.78 nM | viability, T/C [13]: 105% | viability, T/C [14]: 57.8% | viability, T/C [15]: 38.6% | viability, T/C [1]: 23.4% | viability, T/C [16]: 15.9% | viability, T/C [2]: 9.58% | viability, T/C [17]: 85.1% | viability, T/C [18]: 51.9% | viability, T/C [19]: 39.6% | viability, T/C [3]: 22.4% | viability, T/C [20]: 14.7% | viability, T/C [4]: 11.4% | viability, T/C [21]: 79.6% | viability, T/C [22]: 61.9% | viability, T/C [23]: 34.6% | viability, T/C [5]: 21.4% | viability, T/C [24]: 15.3% | viability, T/C [6]: 9.02% | viability, T/C [25]: 84.3% | viability, T/C [26]: 57% | viability, T/C [27]: 38.8% | viability, T/C [7]: 23.9% | viability, T/C [28]: 13.8% | viability, T/C [8]: 8.31% | viability, T/C [29]: 74.9% | viability, T/C [30]: 49.3% | viability, T/C [31]: 31.9% | viability, T/C [9]: 24.7% | viability, T/C [32]: 15.9% | viability, T/C [10]: 9.07% | viability, T/C [33]: 79.5% | viability, T/C [34]: 57.9% | viability, T/C [35]: 35.8% | viability, T/C [11]: 26.8% | viability, T/C [36]: 19.6% | viability, T/C [12]: 9.4%
